Data from paper PMC12406196, “Anticoronavirus Activity of Uridine Glycoconjugates Containing a 1,2,3-Triazole Moiety” (Journal of Medicinal Chemistry, 2025).
Entries after “also recorded” stand apart in the source; their conditions may differ. Where two headings read alike, the source gives them in different places.

Legend:
SARS-CoV-2 = SARS-CoV-2 infectivity in supernatants of infected Vero cells, plaque assay; assay type: cell-based; details: for IC50: read-out: IC50 (SARS-CoV-2)
Protocol: Vero cells were seeded in appropriate plates and allowed to reach an approximately 90% confluence. For infection, 200 μL of viral suspension containing 10^5 pfu (SARS-CoV-2 strain SARS-CoV-2/human/Czech Republic/951/2020) was added to each well and incubated for 2 h at 37 °C to allow virus adsorption. After the incubation, the viral medium was removed, and the wells were washed gently with phosphate-buffered saline (PBS). Test compounds were prepared in serial dilutions to final concentrations of 50, 25, 12.5, 6.25, 3.125, and 0 μM in the medium (DMEM containing 2% FBS). The compounds were added in quadruplicate to the infected cells. The plates were then incubated for 48 h at 37 °C. Following the 48 h treatment period, the supernatants were removed, and plaque assays in Vero E6 cells were performed to assess viral titers. Cells were fixed and stained 4 days after infection to visualize plaques, as described previously.
(§1) The half-maximum inhibitory concentration value (IC50) indicating the concentration of compound needed to reduce virus titer by 50% in comparison to the control, was evaluated by GraphPad software (version 5.01, GraphPad Software, San Diego, CA).

[1] = MTS-based cell viability assay in Vero cells; details: African green monkey, 96 h per table footnote, read-out: CC50 (SARS-CoV-2 block)
Protocol: (§2) LR7, LLC-Mk2 or Vero cells were seeded in 96-well plates and cultured overnight. Next, the medium was changed to a new one supplemented with different concentrations (in triplicate) of analyzed compounds. Following the 2 days (LR7 and Vero) or 4 days (LLC-Mk-2) of incubation, CellTiter 96 AQueous nonradioactive cell proliferation assay (Promega) was performed according to the manufacturer’s instruction. The half-maximal cytotoxic concentration (CC50) was calculated as the concentration of a compound needed to reduce cell viability by 50% using GraphPad Prism software (version 5.01, GraphPad Software, San Diego, CA).

[2] = test system: murine hepatitis virus strain A59 (MHV); assay: MHV titer in medium of infected LR7 cells, plaque assay; assay type: cell-based; details: for dose above which no virus was detectable (MHV titer): LR7 cells, 24 h p.i.; for IC50: Murine coronavirus
Protocol: LR7 or LLC-Mk2 cells were infected at a MOI of 0.01 with MHV and HCoV-NL63, respectively, and treated with selected compounds at a concentration ranging from 0 to 50 μM. Culture supernatants were collected 1 day (MHV) or 4 days (HCoV-NL63) after infection. Virus titer was determined by plaque assay.
as §1

[3] = test system: human coronavirus strain NL63 (HCoV-NL63); assay: HCoV-NL63 N protein expression in LLC-Mk2 cells, Western blot and densitometry; assay type: cell-based; details: for HCoV-NL63 N protein level: 50 μM, MOI 0.01, 4 days p.i., Western blot/densitometry
Protocol: LLC-Mk2 monolayers grown in 24-well plates were infected with HCoV-NL63 at an MOI value of 0.01 for 2 h. Unbound virus was removed, and cells were cultured in medium supplemented with different concentrations of compounds. Four days postinfection, cells were collected and lysed in CellLyticM Cell Lysis Reagent (Sigma). Following the protein separation by SDS-PAGE and transfer to PVDF membranes, proteins were immunoblotted using specific mouse anti-N NL63 Abs (Eurofins, Spain) or rabbit anti-β-catenin Abs (Santa Cruz), followed by antimouse or antirabbit secondary antibodies conjugated with HRP. Proteins were visualized and analyzed by chemiluminescence using the UVITEC Cambridge Alliance MINI HD detection system. The densitometric analysis of cells treated with 50 μM dose of a panel of glycoconjugates was performed based on three biological replicates of N and β-catenin immunoblots. The N protein levels were expressed as a percentage relative to DMSO-treated infected cells, while β-catenin levels were expressed as a percentage relative to noninfected control cells. The data were presented as the ratio of N/β-catenin for each sample, normalized accordingly.

[4] = MTS-based cell viability assay in LLC-Mk2 cells; details: Macaca mulatta, read-out: CC50 (HCoV-NL63 block)
Protocol: as §2

SARS-CoV-2 replicon = assay type: cell-based
[5] = test system: murine hepatitis virus strain A59 (MHV); assay: Reduction of MHV cytopathic effect (CPE) in LR7 cells, MTS/PMS readout; assay type: cell-based; details: for protection against MHV-induced CPE: 50 μM, MOI 0.01, 24 h; for concentration above which MHV-induced CPE was significantly reduced: MOI 0.01, 24 h p.i.
Protocol: LR7 cells were seeded in a 96-well plate and cultured overnight. Next, the cells were infected with MHV at an MOI value of 0.01 in medium without FBS. Following 1 h of incubation, the medium containing the virus was collected and cells were covered with a medium supplemented with different concentrations (in triplicate) of the analyzed compounds or DMSO. 24 h p.i. cells viability was evaluated by CellTiter 96 AQueous nonradioactive cell proliferation assay (Promega) according to the manufacturer’s instruction.

[6] = test system: human coronavirus strain NL63 (HCoV-NL63); assay: HCoV-NL63 titer in medium of infected LLC-Mk2 cells, foci-forming assay; assay type: cell-based; details: for antiviral efficacy against HCoV-NL63 compared with compound 24: dose-response 0–25 μM
Protocol: LR7 or LLC-Mk2 cells were infected at a MOI of 0.01 with MHV and HCoV-NL63, respectively, and treated with selected compounds at a concentration ranging from 0 to 50 μM. Culture supernatants were collected 1 day (MHV) or 4 days (HCoV-NL63) after infection. […]
as §1

HCoV-NL63 RNA synthesis = assay: HCoV-NL63 RNA level in infected LLC-Mk2 cells, RT-PCR; assay type: cell-based, human coronavirus NL63; details: MOI 0.01, 96 h p.i.
Protocol: LR7 or LLC-Mk2 were cultured in 12-well plate overnight. Next, LR7 cells were infected with MHV at an MOI value of 1 for 1 h or LLC-Mk2 cells were infected with HCoV-NL63 at an MOI value of 0.01 for 2 h. Following removal of unbound virus, cells were cultured with medium supplemented with different concentrations of selected compounds. 8 h p.i. (MHV) or 96 h p.i. (HCoV-NL63) cells were collected and total RNA was isolated by CoV RNA kit (A&A Biotechnology, Poland) according to the manufacturer’s instruction. To evaluate levels of viral RNA in infected cells Qiagen One-Step RT-PCR reaction was performed. Following reverse transcription, the PCR reaction was carried out using primers: F: […], R: […] for amplification of a fragment of HCoV-NL63 genome (position: 26418–26960 bp NC_005831.2) and F: […] and R: […] for amplification of a fragment of MHV genome (position: 30341–30902 bp FJ647225.1). For internal control fragment of β-actin mRNA was reverse transcribed and amplified using primers For: […] and Rev: […].

[7] = MTS-based cell viability assay in LR7 cells; parameters: species or system mouse; details: mouse, LR7 cells, 48 h, 0–100 μM, read-out: CC50 (MHV block)
Protocol: as §2

LR7 cells = assay: MTS-based cell viability assay in LR7 cells; parameters: species or system mouse; details: 50 μM, uninfected LR7 cells
Protocol: as §2

[8] = test system: SC-VLP entry into HEK-hACE2 cells; assay: SARS-CoV-2 VLP (SC-VLP) internalization assay in HEK-hACE2 cells, luciferase; assay type: cell-based; details: 12.5 μM during SC-VLP production
[9] = Severe acute respiratory syndrome coronavirus 2, Vero, supplementary CSV, decimal comma
[10] = Severe acute respiratory syndrome coronavirus 2, Vero cells, supernatant 48 h after infection, plaque assay
[11] = virus titer released from LR7 cells, MOI 0.01, 24 h p.i., plaque assay, read-out: IC50 (MHV)
[12] = 96 h, virus titer released from LLC-Mk2 cells, MOI 0.01, 4 days p.i., read-out: IC50 (HCoV-NL63)

Row | SMILES | IC50 (SARS-CoV-2; [9]) | IC50 (SARS-CoV-2; [10]) | CC50 at 96 h [1] | dose above which no virus was detectable (MHV titer) ([2]; plaque assay) | IC50 [2, 11] | HCoV-NL63 N protein level [3] | CC50 at 96 h [4] | inhibition of SARS-CoV-2 replication (replicon) (SARS-CoV-2 replicon) | protection against MHV-induced CPE [5] | concentration above which MHV-induced CPE was significantly reduced [5] | IC50 [6, 12] | concentration that effectively suppressed HCoV-NL63 RNA synthesis (HCoV-NL63 RNA synthesis) | CC50 at 48 h [7] | reduction of cell viability (cytotoxicity in uninfected cells) (LR7 cells) | antiviral efficacy against HCoV-NL63 compared with compound 24 ([6]; LLC-Mk2 cells) | further results
1 | CC(=O)OC[C@H]1O[C@@H](SCn2cc(COC[C@H]3O[C@@H](n4ccc(=O)[nH]c4=O)[C@H](O[Si](C)(C)C(C)(C)C)[C@@H]3O[Si](C)(C)C(C)(C)C)nn2)[C@H](OC(C)=O)[C@@H](OC(C)=O)[C@@H]1OC(C)=O [Compound 24, 2′,3′-di-O-tert-Butyldimethylsilyl-5′-O-[(1-(2″,3″,4″,6″-tetra-O-acetyl-β-D-glucopyranosylthiomethyl)-1,2-3-triazol-4-yl)-methyl]-uridine] | 18.7 µM | ~18.7 µM | > 100 µM | above 6.25 μM | 3.7 µM | significantly reduced; also recorded: No N protein was detected | 59.1 µM | inhibited SARS-CoV-2 replication; also recorded: effectively suppressed SARS-CoV-2 replication; also recorded: partial | significantly reduced cell death | above 12.5 μM | 3.1 µM | 6.25 µM | > 100 µM | 10–30% |  | dose above which HCoV-NL63 viral protein expression was completely inhibited ([3]; 4 days p.i., immunoblot): above 6.25 μM; dose above which HCoV-NL63 viral release was completely inhibited ([6]; LLC-Mk2 cells, 4 days p.i., foci-forming assay): above 6.25 μM
2 | CC(=O)OC[C@H]1O[C@@H](SCc2cn(C[C@H]3O[C@@H](n4ccc(=O)[nH]c4=O)[C@H](O[Si](C)(C)C(C)(C)C)[C@@H]3O[Si](C)(C)C(C)(C)C)nn2)[C@H](OC(C)=O)[C@@H](OC(C)=O)[C@@H]1OC(C)=O [Compound 20, 2′,3′-di-O-tert-Butyldimethylsilyl-5′-deoxy-5′-[4-(2″,3″,4″,6″-tetra-O-acetyl-β-D-glucopyranosylthiomethyl)-1,2-3-triazol-1-yl]-uridine] | 16.2 µM | ~16.2 µM | > 100 µM |  | 11.3 µM | significantly reduced; also recorded: reduction of N, as well as β-catenin levels | > 100 µM | inhibited SARS-CoV-2 replication; also recorded: effectively suppressed SARS-CoV-2 replication; also recorded: partial | significantly reduced cell death; also recorded: nearly eliminating CPE | above 6.25 μM | 5.5 µM | 6.25 µM | > 100 µM | no detectable toxicity | slightly lower activity | reduction in SARS-CoV-2 viral titers (SARS-CoV-2; 25 μM, Vero cells): highest level of activity; IC50 ([2]; LR7, supplementary CSV, decimal comma, read-out: IC50 (MHV)): 11.3 µM
3 | CC(=O)OC[C@H]1O[C@@H](SCc2cn(C[C@H]3O[C@@H](n4ccc(=O)[nH]c4=O)[C@H](O[Si](C)(C)C(C)(C)C)[C@@H]3O[Si](C)(C)C(C)(C)C)nn2)[C@H](OC(C)=O)[C@@H](OC(C)=O)[C@H]1OC(C)=O [Compound 21, 2′,3′-di-O-tert-Butyldimethylsilyl-5′-deoxy-5′-[4-(2″,3″,4″,6″-tetra-O-acetyl-β-D-galactopyranosylthiomethyl)-1,2-3-triazol-1-yl]-uridine] |  | ~19 µM | > 100 µM | above 6.25 μM | 4.5 µM | significantly reduced; also recorded: No N protein was detected | 46.7 µM |  | significantly reduced cell death; also recorded: nearly eliminating CPE | above 6.25 μM | 5.7 µM | 12.5 µM | 65.3 µM | no detectable toxicity | slightly lower activity | reduction of SC-VLP entry compared with the control [8]: 80%; IC50 (SARS-CoV-2; Severe acute respiratory syndrome coronavirus 2, Vero): 19 µM; IC50 ([2]; LR7, read-out: IC50 (MHV)): 4.51 µM; IC50 ([6]; LLC-MK2, read-out: IC50 (HCoV-NL63)): 5.56 µM
